In this experiment the target is T1, human PAD4 (Homo sapiens, UniProt Q9UM07).
T1 construct: human PAD4 (NM_012387), A2-P663, was PCR amplified; His-SUMO (N, cleaved yes); made in house; host or cells: E. coli BL21(DE3)
As to the kind of experiment: In vitro PAD4 BAEE biochemical assay. The following applies: BAEE substrate 3 mM, 5 nM PAD4, 2 mM calcium chloride; geometric mean of multiple experiments. The method, boiled down:
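PAD4 5 nM, CaCl2 2 mM, BAEE 3 mM final; 50 mM MOPS pH 7.6, 50 mM NaCl, 0.05% Tween-20, 2 mM DTT. Cpd + enzyme 30 min 25 °C; substrate 2 h 25 °C; EDTA stop; OPA detection 1 h. IC50 4-parameter fit.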

The term IC50 denotes the concentration at which inhibition is half-maximal.

T1 sequence (Q9UM07 2-663): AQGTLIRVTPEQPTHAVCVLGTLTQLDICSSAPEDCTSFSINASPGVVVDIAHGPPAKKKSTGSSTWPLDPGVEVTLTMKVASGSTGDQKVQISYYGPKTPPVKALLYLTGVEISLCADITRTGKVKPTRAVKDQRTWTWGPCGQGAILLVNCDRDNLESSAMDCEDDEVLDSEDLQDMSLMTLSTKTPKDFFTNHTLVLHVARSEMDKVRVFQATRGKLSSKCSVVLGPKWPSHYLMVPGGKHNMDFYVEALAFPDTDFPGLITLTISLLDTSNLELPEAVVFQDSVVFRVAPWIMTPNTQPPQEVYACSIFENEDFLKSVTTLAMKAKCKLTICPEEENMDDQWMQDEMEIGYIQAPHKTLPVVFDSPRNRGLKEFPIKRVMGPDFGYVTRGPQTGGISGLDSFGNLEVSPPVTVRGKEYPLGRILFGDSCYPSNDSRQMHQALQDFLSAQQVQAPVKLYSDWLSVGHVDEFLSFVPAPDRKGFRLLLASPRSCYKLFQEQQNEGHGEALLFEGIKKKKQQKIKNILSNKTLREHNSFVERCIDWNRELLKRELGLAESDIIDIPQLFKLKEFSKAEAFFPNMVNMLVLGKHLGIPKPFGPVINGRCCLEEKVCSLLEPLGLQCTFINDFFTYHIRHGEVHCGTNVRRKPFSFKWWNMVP

`C[C@H]1NC(=O)c2ccc(Cl)nc2CCCCCn2c(-c3nc4cc(C(=O)N5C[C@H](N)[C@@H]6CC[C@H]5C6)cc(F)c4n3[C@H]3C[C@H]3F)cc3ccc1nc32` [Example 846, (2~{R})-17-[5-[(1~{S),4~{R}, 5~{R})-4-amino-2-azabicyclo [3.2.1]octane-2-carbonyl]-7-fluoro-1-[(1~{S},2~{R})-2-fluorocyclopropyl]benzimidazol-2-yl]-8-chloro-2-methyl-3,9,16,22-tetrazatetracyclo[14.5.2.0^ {5,10).0^{19,23}]tricosa-1(22),5(10),6,8,17,19(23),20-heptaen-4-one]: the IC50 worked out at 27 nM. The value for `COc1cc(C(=O)N[C@H]2CNCC[C@@H]2F)cc2nc(-c3cc4ccc5nc4n3CCCCCCC3(CC3)C(=O)N[C@@H]5C)n(C)c12` [Example 74, ~{N}-[(3~{S},4~{S})-4-fluoro-3-piperidyl]-7-methoxy-1-methyl-2-[(11~{R})-11-methyl-9-oxo-spiro[1,10,19-triazatricyclo[10.5.2.0^{15,18}]nonadeca-12(19),13,15(18),16-tetraene-8,1′-cyclopropane]-17-yl]benzimidazole-5-carboxamide] was 221 nM. The value for `COc1cc(C(=O)N2C[C@H](N)[C@@H]3CC[C@H]2C3)cc2nc(-c3cc4ccc5nc4n3CCCCCC[C@@H](c3ccccn3)C(=O)N[C@@H]5C)n(C)c12` [Example 891, (8~{S),11~{R})-17-[5-[(1~{S},4~{R},5~{R})-4-amino-2-azabicyclo[3.2.1]octane-2-carbonyl]-7-methoxy-1-methyl-benzimidazol-2-yl]-11-methyl-8-(2-pyridyl)-1,10,19-triazatricyclo[10.5.2.0^ {15,18}]nonadeca-12(19), 13,15(18),16-tetraen-9-one] was 13 nM; that for `COc1cc(C(=O)N2C[C@H](N)[C@@H]3CC[C@H]2C3)cc2nc(-c3cc4ccc5nc4n3CCCCC[C@]3(F)C[C@H]3C(=O)N[C@@H]5C)c(C3CC3)n12` [Example 758, (2~{R},5~{S},7~{S})-14-[7-[(1~{S},4~{R},5~{R})-4-amino-2-azabicyclo[3.2.1]octane-2-carbonyl]-3-cyclopropyl-5-methoxy-imidazo[1,2-a]pyridin-2-yl]-7-fluoro-2-methyl-3,13,19-triazatetracyclo [11.5.2.0^{5,7}.0^{16,20}] icosa-1(19),14,16(20),17-tetraen-4-one] was 17 nM. The value for `C[C@H]1NC(=O)C(C)(C)CCCCCCn2c(-c3nc4cc(C(=O)N[C@H]5CNCC[C@@H]5F)c(Cl)cc4n3C)cc3ccc1nc32` [Example 541, 6-chloro-~{N}-[(3~ {S),4~{S})-4-fluoro-3-piperidyl]-1-methyl-2-[(11~{R})-8,8,11-trimethyl-9-oxo-1,10,19-triazatricyclo[10.5.2.0^ {15,18}]nonadeca-12(19), 13,15(18),16-tetraen-17-yl]benzimidazole-5-carboxamide] was 123 nM.

As for `COc1cc(C(=O)N2CCC[C@@H](N)[C@H]2C)cc2nc(-c3cc4ccc5nc4n3CCCCCCC3(COC3)C(=O)N[C@@H]5C)n(C)c12` [Example 799, (11~{R})-17-[5-[(2~{R},3~{R})-3-amino-2-methyl-piperidine-1-carbonyl]-7-methoxy-1-methyl-benzimidazol-2-yl]-11-methyl-spiro[1,10,19-triazatricyclo[10.5.2.0^ {15,18}]nonadeca-12,14,16,18-tetraene-8,3′-oxetane]-9-one], the IC50 was 12 nM. The value for `COc1cc(C(=O)N2C[C@H](N)C[C@@H](F)[C@@H]2C)cc2nc(-c3cc4ccc5nc4n3CC(F)(F)CCCC3C[C@H]3C(=O)N[C@@H]5C)n(C)c12` (stereo partly shown) [Example 792, (2~{R},5~{R),7~{R})-14-[5-[(2~{S),3~{R},5~{R})-5-amino-3-fluoro-2-methyl-piperidine-1-carbonyl]-7-methoxy-1-methyl-benzimidazol-2-yl]-11,11-difluoro-2-methyl-3,13,19-triazatetracyclo [11.5.2.0^{5,7}.0^{16,20}] icosa-1(18),14,16,19-tetraen-4-one] was 342 nM; that for `C[C@H]1NC(=O)[C@](F)(c2ccccn2)CCCCCCn2c(-c3nc4cc(C(=O)N5C[C@H](N)[C@@H]6CC[C@H]5C6)cc(F)c4n3C3CC3)cc3ccc1nc32` [Example 886, (8~{R},11~{R})-17-[5-[(1~{S),4~{R},5~{R))-4-amino-2-azabicyclo[3.2.1]octane-2-carbonyl]-1-cyclopropyl-7-fluoro-benzimidazol-2-yl]-8-fluoro-11-methyl-8-(2-pyridyl)-1,10,19-triazatricyclo [10.5.2.0^{15,18}]nonadeca-12(19),13,15(18), 16-tetraen-9-one] was 29 nM. In the case of `COc1cc(C(=O)N2[C@H]3CC[C@@H]2[C@H](N)C3)cc2nc(-c3cc4ccc5nc4n3C[C@@H]3C[C@H]3COCCC(=O)N[C@@H]5C)c(C)n12` [Example 322, (3~{R},5~{R},12~{R})-18-[7-[(1~{R},2~{R},4~{S})-2-amino-7-azabicyclo[2.2.1]heptane-7-carbonyl]-5-methoxy-3-methyl-imidazo[1,2-a]pyridin-2-yl]-12-methyl-7-oxa-1,11,20-triazatetracyclo[11.5.2.0^{3,5}.0^{16,19}] icosa-13(20),14,16(19),17-tetraen-10-one], the concentration for half-maximal inhibition (IC50) worked out at 15 nM. For `COc1cc(C(=O)N2[C@H]3CC[C@@H]2[C@H](N)C3)cc2nc(-c3cc4ccc5nc4n3CCCCCCCC(=O)N3C[C@@H]4C[C@@H]4[C@H]53)n(C)c12` [Example 135, (2~{R),3~{S},5~{R})-17-[5-[(1~{R},2~{R},4~{S})-2-amino-7-azabicyclo[2.2.1]heptane-7-carbonyl]-7-methoxy-1-methyl-benzimidazol-2-yl]-7,16,22-triazapentacyclo [14.5.2.0^{2,7}.0^{3,5}.0^{19,23}] tricosa-1(22),17,19(23),20-tetraen-8-one] the value was 37 nM; for `COc1cc(C(=O)N2CCC[C@@H](N)C2)cc2nc(-c3cc4ccc5nc4n3C[C@H]3C[C@H]3CCCCC(=O)N[C@@H]5C)n(C)c12` [Example 118, (3~{S},5~{R},12~{R})-18-[5-[(3~{R})-3-aminopiperidine-1-carbonyl]-7-methoxy-1-methyl-benzimidazol-2-yl]-12-methyl-1,11,20-triazatetracyclo[11.5.2.0^{3,5}.0^{16,19}] icosa-13(20),14,16(19),17-tetraen-10-one], 41 nM; for `CO[C@@H]1CCN(C(=O)c2cc(F)c3c(c2)nc(-c2cc4ccc5nc4n2CCCCC[C@]2(F)C[C@H]2C(=O)N[C@@H]5C)n3C2CC2)C[C@@H]1N` [Example 704, (2~{R},5~{S},7~{S})-14-[5-[(3~{S},4~{R})-3-amino-4-methoxy-piperidine-1-carbonyl]-1-cyclopropyl-7-fluoro-benzimidazol-2-yl]-7-fluoro-2-methyl-3,13,19-triazatetracyclo[11.5.2.0^ {5,7}.0^{16,20}]icosa-1(19), 14,16(20),17-tetraen-4-one], 31 nM. For `COc1cc(C(=O)N2C[C@H](N)CCN2C)cc2nc(-c3cc4ccc5nc4n3CCCCCCC(C)(C)C(=O)N[C@@H]5C)n(C)c12` [Example 299, (11~{R})-17-[5-[(5~{R})-5-amino-2-methyl-hexahydropyridazine-1-carbonyl]-7-methoxy-1-methyl-benzimidazol-2-yl]-8,8,11-trimethyl-1,10,19-triazatricyclo[10.5.2.0^{15,18}]nonadeca-12(19),13,15(18),16-tetraen-9-one] the value was 58 nM.

The values above are taken from US11976083B2, “Inhibitors of peptidylarginine deiminases” (Gilead Sciences, Inc., priority 2020, dated 2024).
